This passage reports inhibition results from patent US20100137313A1 (ASTRAZENECA AB, priority 2008, published 2010).

For the assay, the target named is S. pneumoniae Topoisomerase IV ATPase (ParE) (Streptococcus pneumoniae serotype 4, UniProt Q59961). In words: S. pneumoniae Topoisomerase IV ATPase inhibition. In kind it is biochemical. Conditions: values marked * are an average of two or more data points, read-out: % Inh (13 μM) of S. pneumoniae Topoisomerase IV ATPase. In a few lines: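 Malachite green/ammonium molybdate phosphate detection, A650. 1.25 nM ParE, 160 μM ATP, sheared salmon sperm DNA 5 μg/ml, 20 mM Tris pH 8.0, 8.0 mM MgCl2. Controls: 2% DMSO = 0%, 20 μM EDTA = 100% inhibition; IC50 over 10 concentrations.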
Chain of S. pneumoniae Topoisomerase IV ATPase (ParE) (Q59961 whole entry): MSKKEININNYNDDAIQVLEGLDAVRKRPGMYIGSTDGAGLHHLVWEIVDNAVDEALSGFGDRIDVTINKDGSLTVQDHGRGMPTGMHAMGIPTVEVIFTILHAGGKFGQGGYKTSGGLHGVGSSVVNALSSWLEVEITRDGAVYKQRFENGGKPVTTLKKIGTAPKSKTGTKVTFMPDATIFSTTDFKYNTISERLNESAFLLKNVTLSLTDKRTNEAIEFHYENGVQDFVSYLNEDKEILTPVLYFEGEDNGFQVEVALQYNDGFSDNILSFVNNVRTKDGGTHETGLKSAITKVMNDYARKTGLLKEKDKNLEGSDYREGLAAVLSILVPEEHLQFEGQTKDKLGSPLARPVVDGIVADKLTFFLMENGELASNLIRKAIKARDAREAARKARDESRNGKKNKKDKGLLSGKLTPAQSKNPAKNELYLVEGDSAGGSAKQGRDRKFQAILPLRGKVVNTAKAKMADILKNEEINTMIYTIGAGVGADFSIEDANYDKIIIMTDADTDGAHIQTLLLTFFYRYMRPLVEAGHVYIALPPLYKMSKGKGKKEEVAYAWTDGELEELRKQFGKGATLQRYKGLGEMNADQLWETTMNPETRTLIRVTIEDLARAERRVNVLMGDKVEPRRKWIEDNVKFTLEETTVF
In the case of `COc1cc(Nc2ncc(-c3ccc(C(=O)O)s3)c(-n3nc(C(F)(F)F)cc3C)n2)cc(C(F)(F)F)c1` [Example 883, 5-(2-(3-methoxy-5-(trifluoromethyl)phenylamino)-4-(5-methyl-3-(trifluoromethyl)-1H-pyrazol-1-yl)pyrimidin-5-yl)thiophene-2-carboxylic acid], the inhibition at 13 µM was determined as 99%.

In the case of `COCCn1cc(-c2cnc(Nc3cc(OC)cc(OC)c3)nc2-n2nc(C(F)(F)F)cc2C)cc(C(=O)O)c1=O` [Example 1160, 5-(2-(3,5-dimethoxyphenylamino)-4-(5-methyl-3-(trifluoromethyl)-1H-pyrazol-1-yl)pyrimidin-5-yl)-1-(2-methoxyethyl)-2-oxo-1,2-dihydropyridine-3-carboxylic acid], the inhibition at 13 µM stood at 100%.

Regarding `O=C(c1cccc(-c2cnc(Nc3ccc(F)c(Cl)c3)nc2-n2ccc(C(F)(F)F)n2)c1)N1CCOCC1` [Example 1151, (3-(2-(3-chloro-4-fluorophenylamino)-4-(3-(trifluoromethyl)-1H-pyrazol-1-yl)pyrimidin-5-yl)phenyl)(morpholino)methanone], the inhibition at 13 µM amounted to 100%.

As to `COc1cc(Nc2ncc(-c3cncc(C(=O)CS(C)(=O)=O)c3)c(-n3nc(C(F)(F)F)cc3C)n2)cc(C(F)(F)F)c1` [Example 881, 1-(5-(2-(3-methoxy-5-(trifluoromethyl)phenylamino)-4-(5-methyl-3-(trifluoromethyl)-1H-pyrazol-1-yl)pyrimidin-5-yl)pyridin-3-yl)-2-(methylsulfonyl)ethanone], the inhibition at 13 µM came to 97%.

Turning to `O=C(O)C1CCCN(c2cccc(-c3cnc(Nc4ccc(F)c(Cl)c4)nc3-n3ccc(C(F)(F)F)n3)c2)C1` (stereo not drawn) [Example 601, 1-(3-{2-[(3-chloro-4-fluorophenyl)amino]-4-[3-(trifluoromethyl)-1H-pyrazol-1-yl]pyrimidin-5-yl}phenyl)piperidine-3-carboxylic acid], the inhibition at 13 µM amounted to 100%.

In the case of `COc1ccc(-c2cnc(Nc3ccc(F)c(Cl)c3)nc2-n2ccc(C(F)(F)F)n2)cc1C(N)=O` [Example 1106, 5-(2-(3-chloro-4-fluorophenylamino)-4-(3-(trifluoromethyl)-1H-pyrazol-1-yl)pyrimidin-5-yl)-2-methoxybenzamide], the inhibition at 13 µM was 21%.

Consider `COc1cc(Nc2ncc(-c3cccc(/C=C/C(=O)O)c3)c(-n3nc(C(F)(F)F)cc3C)n2)cc(S(C)(=O)=O)c1` [Example 653], for which the inhibition at 13 µM was 86%.

As to `COc1cc(Nc2ncc(-c3cnc(OC)c(C(=O)NS(=O)(=O)c4cn(C)c(=O)n(C)c4=O)c3)c(-n3nc(C(F)(F)F)cc3C)n2)cc(OC)c1` [Example 847, 5-{2-[(3,5-dimethoxyphenyl)amino]-4-[5-methyl-3-(trifluoromethyl)-1H-pyrazol-1-yl]pyrimidin-5-yl}-N-[(1,3-dimethyl-2,4-dioxo-1,2,3,4-tetrahydropyrimidin-5-yl)sulfonyl]-2-methoxypyridine-3-carboxamide], the inhibition at 13 µM stood at 97%.

As for `O=C(O)c1cc2cc(-c3cnc(Nc4ccc(F)c(Cl)c4)nc3N3CCOCC3)ccc2s1` [Example 306, 5-(2-(3-chloro-4-fluorophenylamino)-4-morpholinopyrimidin-5-yl)benzo[b]thiophene-2-carboxylic acid], the inhibition at 13 µM stood at 84.8%.

Consider `CCn1cc(-c2cnc(Nc3ccc(F)c(Cl)c3)nc2-n2nc(C(F)(F)F)cc2C)cc(C(=O)O)c1=O` [Example 1086, 5-(2-(3-Chloro-4-fluorophenylamino)-4-(5-methyl-3-(trifluoromethyl)-1H-pyrazol-1-yl)pyrimidin-5-yl)-1-ethyl-2-oxo-1,2-dihydropyridine-3-carboxylic acid], for which the inhibition at 13 µM is 92%.

Turning to `COc1cc(Nc2ncc(-c3cccc(/C=C/C(N)=O)c3)c(NCCc3ccncc3)n2)cc(C(F)(F)F)c1` [Example 373, (E)-3-(3-(2-(3-methoxy-5-(trifluoromethyl)phenylamino)-4-(2-(pyridin-4-yl)ethylamino)pyrimidin-5-yl)phenyl)acrylamide], the inhibition at 13 µM was found to be 82.8%.

For `Fc1ccc(Nc2ncc(-c3cncnc3)c(-n3cccc3)n2)cc1Cl` [Example 73, N-(3-chloro-4-fluorophenyl)-4-(1H-pyrrol-1-yl)-5,5′-bipyrimidin-2-amine], the inhibition at 13 µM worked out at 89.6%.

For `CC(=O)NCCCNc1nc(Nc2ccc(F)c(Cl)c2)ncc1-c1cncnc1` [Example 377, N-(3-(2-(3-chloro-4-fluorophenylamino)-5,5′-bipyrimidin-4-ylamino)propyl)acetamide], the inhibition at 13 µM turned out to be 78.9%.

As for `CCS(=O)(=O)NC(=O)c1cc(-c2cnc(Nc3ccc(F)c(Cl)c3)nc2-n2ccc(C(F)(F)F)n2)cnc1OC` [Example 1016, 5-(2-(3-Chloro-4-fluorophenylamino)-4-(3-(trifluoromethyl)-1H-pyrazol-1-yl)pyrimidin-5-yl)-N-(ethylsulfonyl)-2-methoxynicotinamide], the inhibition at 13 µM turned out to be 94%.

With `CCOC(=O)c1cncc(-c2cnc(Nc3ccc(F)c(Cl)c3)nc2NC(C)C)c1` [Example 116, ethyl 5-[2-[(3-chloro-4-fluorophenyl)amino]-4-(propan-2-ylamino)pyrimidin-5-yl]pyridine-3-carboxylate], the inhibition at 13 µM amounted to 82%.

In the case of `CCOC(=O)c1cncc(-c2cnc(Nc3ccc(F)c(Cl)c3)nc2N2CCC(O)CC2)c1` [Example 117, ethyl 5-[2-[(3-chloro-4-fluorophenyl)amino]-4-(4-hydroxypiperidin-1-yl)pyrimidin-5-yl]pyridine-3-carboxylate], the inhibition at 13 µM was determined as 73.4%.

For the compound `Cc1cc(C)cc(Nc2ncc(-c3cc(C(=O)O)c(=O)n(C)c3)c(-n3nc(C(F)(F)F)cc3C)n2)c1` [Example 1166, 5-(2-(3,5-dimethylphenylamino)-4-(5-methyl-3-(trifluoromethyl)-1H-pyrazol-1-yl)pyrimidin-5-yl)-1-methyl-2-oxo-1,2-dihydropyridine-3-carboxylic acid], the inhibition at 13 µM was determined as 100%.

`COCCN1CCN(c2nc(Nc3ccc(F)c(Cl)c3)ncc2-c2cccc(/C=C/C(=O)O)c2)CC1` [Example 300, (E)-3-(3-(2-(3-chloro-4-fluorophenylamino)-4-(4-(2-methoxyethyl)piperazin-1-yl)pyrimidin-5-yl)phenyl)acrylic acid]: the inhibition at 13 µM is 82.3%.

For the compound `COc1cc(Cl)c(C)cc1Nc1ncc(-c2cccc(/C=C/C(=O)O)c2)c(NCCCN(C)C)n1` [Example 911, (E)-3-(3-(2-(4-chloro-2-methoxy-5-methylphenylamino)-4-(3-(dimethylamino)propylamino)pyrimidin-5-yl)phenyl)acrylic acid], the inhibition at 13 µM was 58%.

For the compound `Cc1cc(C(F)(F)F)nn1-c1nc(Nc2ccc(F)c(Cl)c2)ncc1-c1cc(C(=O)O)c(=O)n(C)c1` [Example 1088, 5-(2-(3-chloro-4-fluorophenylamino)-4-(5-methyl-3-(trifluoromethyl)-1H-pyrazol-1-yl)pyrimidin-5-yl)-1-methyl-2-oxo-1,2-dihydrpyridine-3-carboxylic acid], the inhibition at 13 µM was 100%.

Consider `O=S(=O)(c1cncc(-c2cnc(Nc3ccc(F)c(Cl)c3)nc2-n2ccc(C(F)(F)F)n2)c1)N1CCOCC1` [Example 1035], for which the inhibition at 13 µM stood at 51%.
